Results reported in the supplement of paper PMC8967900.

Tests used:
Assay in all cases: selective drug sensitivity score (sDSS, relative to normal bone marrow) (sDSS (score)); higher = more potent and effective on the cell line relative to normal bone marrow cells
Conditions in all cases: 72 h
380 = tested on: 380
697 = tested on: 697
COG-LL-319h = tested on: COG-LL-319h
COG-LL-332h = tested on: COG-LL-332h
COG-LL-394h = tested on: COG-LL-394h
COG-LL-402h = tested on: COG-LL-402h
KASUMI-10 = tested on: KASUMI-10
KASUMI-2 = tested on: KASUMI-2
KOPN-8 = tested on: KOPN-8
MHH-CALL-4 = tested on: MHH-CALL-4
MN-60 = tested on: MN-60
MOLT-14 = tested on: MOLT-14
MOLT-16 = tested on: MOLT-16
MOLT-4 = tested on: MOLT-4
NALM-16 = tested on: NALM-16
P12-ICHIKAWA = tested on: P12-ICHIKAWA
PF-382 = tested on: PF-382
REH = tested on: REH
SEM cells = tested on: SEM cells
SUP-B15 = tested on: SUP-B15
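Note: ALL cell lines in 384-well plates, five doses spanning 10,000-fold, each plate scaled between vehicle and 100 µmol/L benzalkonium chloride controls, sDSS an adapted area-under-curve metric.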

Structure (SMILES) | selective drug sensitivity score 380 | selective drug sensitivity score 697 | selective drug sensitivity score (COG-LL-319h) | selective drug sensitivity score (COG-LL-332h) | selective drug sensitivity score (COG-LL-394h) | selective drug sensitivity score (COG-LL-402h) | selective drug sensitivity score (KASUMI-10) | selective drug sensitivity score (KASUMI-2) | selective drug sensitivity score (KOPN-8) | selective drug sensitivity score (MHH-CALL-4) | selective drug sensitivity score (MN-60) | selective drug sensitivity score (MOLT-14) | selective drug sensitivity score (MOLT-16) | selective drug sensitivity score (MOLT-4) | selective drug sensitivity score (NALM-16) | selective drug sensitivity score (P12-ICHIKAWA) | selective drug sensitivity score (PF-382) | selective drug sensitivity score (REH) | selective drug sensitivity score (SEM cells) | selective drug sensitivity score (SUP-B15)
CC[C@@]1(O)C(=O)OCc2c1cc1n(c2=O)Cc2cc3c(CN(C)C)c(O)ccc3nc2-1 [Topotecan] (top concentration 10000 nM) | 27.1 | 18.9 | 18.6 | 23.9 | 11.4 | 17.7 | 18 | 14.7 | 23.4 | 16.5 | 4.28 | 25.9 | 21.5 | 19.9 | 7.18 | 19.2 | 18.2 | 22.2 | 20.3 | 22.4
COc1cccc2c1C(=O)c1c(O)c3c(c(O)c1C2=O)C[C@@](O)(C(=O)CO)C[C@@H]3O[C@H]1C[C@H](N)[C@@H](O)[C@H](C)O1 [Epirubicin] (top concentration 1000 nM) | 13.8 | 10.1 | 16.3 | 11.3 | 6.82 | 14.9 | 5.82 | 7.72 | 9.42 | 6.92 | -0.98 | 11.6 | 15.4 | 9.92 | -0.28 | 4.62 | 2.12 | 10.5 | 3.82 | 13.7
CO[C@H]1C[C@@H]2CC[C@@H](C)[C@@](O)(O2)C(=O)C(=O)N2CCCC[C@H]2C(=O)O[C@H]([C@H](C)C[C@@H]2CC[C@@H](OCCO)[C@H](OC)C2)CC(=O)[C@H](C)/C=C(\C)[C@@H](O)[C@@H](OC)C(=O)[C@H](C)C[C@H](C)/C=C/C=C/C=C/1C [Everolimus] (top concentration 100 nM) | 16.5 | 9.3 | 10.7 | 4.5 | -4.9 | 1 | -5.3 | 11.8 | 19.6 | -1.5 | 0.5 | -2.2 | 8.1 | -1.2 | -2 | -2.5 | 1.9 | 4 | 1.4 | 6.1
O=c1[nH]c(=O)n([C@H]2C[C@H](O)[C@@H](CO)O2)cc1C(F)(F)F [Trifluridine] (top concentration 10000 nM) | 14 | 17.9 | 20.2 | 7.46 | 2.66 | 8.26 | 6.36 | 10.3 | 17.4 | 2.26 | 3.66 | 15.4 | 15.1 | 7.36 | 4.06 | 15.4 | 4.16 | 15.3 | 14.5 | 15.4
CC[C@H](CC#N)OC(=O)N[C@@H](C)c1cccc(NC(=O)Nc2ccc(-c3cnco3)c(OC)c2)c1 [AVN944] (top concentration 10000 nM) | 18.4 | 17.5 | 12.3 | 18 | -2.06 | 9.64 | 10.1 | 14.4 | 19.5 | 2.44 | 3.64 | 15.9 | 22.3 | 15.6 | 0.24 | 14.2 | 10.2 | 16.8 | 7.04 | 14.6
CON(C)C(=O)N1N=C(c2cc(F)ccc2F)S[C@@]1(CCCN)c1ccccc1 [Filanesib] (top concentration 1000 nM) | 18.5 | 23 | 23.4 | 21.1 | 8.7 | 17.7 | 14.2 | 19.8 | 9.8 | 7.4 | 7.1 | 22.9 | 21.2 | 9.3 | 16.6 | 15.9 | 12.5 | 11.9 | 20.3 | 21.6
Cc1sc2c(c1C)C(c1ccc(Cl)cc1)=N[C@@H](CC(=O)NCCCCNC(=O)COc1cccc3c1C(=O)N(C1CCC(=O)NC1=O)C3=O)c1nnc(C)n1-2 (stereo not given in full) [dBET1] (top concentration 10000 nM) | -4.58 | -0.38 | 3.62 | -8.98 | -2.78 | 2.22 | 2.32 | -6.88 | 7.82 | 5.42 | -8.08 | -1.48 | 1.42 | -9.28 | -4.48 | -11.6 | -8.28 | -1.28 | -3.38 | 0.52
CN(Cc1cnc2nc(N)nc(N)c2n1)c1ccc(C(=O)N[C@@H](CCC(=O)O)C(=O)O)cc1 [Methotrexate] (top concentration 5000 nM) | 17.8 | 0.58 | 20.1 | 11.3 | 1.68 | 2.38 | 9.88 | 0.28 | -0.12 | 9.68 | 14.6 | 10.8 | 15.7 | 11.2 | 6.68 | 15.8 | 11.7 | -0.22 | -0.42 | -0.32
COc1ccc(-c2ccc3c(N4CCOC[C@@H]4C)nc(N4CCOC[C@@H]4C)nc3n2)cc1CO [AZD8055] (top concentration 10000 nM) | 15.8 | 16.8 | 5.28 | 8.08 | -2.42 | 9.88 | 0.48 | 14.6 | 22.6 | 2.88 | 7.98 | 1.18 | 12.5 | 7.08 | 1.78 | 6.78 | 9.18 | 12.8 | 6.18 | 11.9
CN1CCN(C2CCC(n3cc(-c4ccc(Oc5ccccc5)cc4)c4c(N)ncnc43)CC2)CC1 (stereo not given) (top concentration 10000 nM) | -0.68 | 3.32 | 2.42 | 6.42 | 4.42 | 18.2 | 8.52 | -1.38 | 5.02 | 0.52 | 1.32 | 3.42 | 0.52 | 0.82 | 0.72 | 1.12 | 7.12 | 4.12 | 9.62 | 16.1
